Measurements from the supplement of paper PMC4862054.

Columns and labels:
Settings in all cases: incubation time: 72 h
BT-549 [1] = test: normalised response (% of control), CellTox Green; higher = less cell death (100 = DMSO, 0 = benzethonium chloride kill control)
How it was run: (§1)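 Breast cancer cell lines in 20 µl suspension were added to 384-well plates containing compound at 5 concentrations, spaced in 10-fold steps across a 10,000-fold range chosen for each compound, and incubated for 72 h. CellTox Green fluorescence was read at 485/520 nm, followed by CellTiter-Glo luminescence after 10 min at room temperature. Signals on each plate were normalised so that 0.1 % DMSO equals 100 and a positive kill control equals 0. Every value in the table is the normalised signal at one concentration of the series.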

MCF-10A [2] = test: as above
How it was run: as §1

MDA-MB-231 [3] = test: as above
How it was run: as §1

HCC1937 [4] = test: as above
How it was run: as §1

Hs578T [5] = test: as above
How it was run: as §1

CAL-51 [6] = test: as above
How it was run: as §1

HCC1599 [7] = test: as above
How it was run: as §1

BT-474 [8] = test: as above
How it was run: as §1

CAL-85-1 [9] = test: as above
How it was run: as §1

MDA-MB-436 [10] = test: as above
How it was run: as §1

MDA-MB-468 [11] = test: as above
How it was run: as §1

CAL-120 [12] = test: as above
How it was run: as §1

HCC1143 [13] = test: as above
How it was run: as §1

MFM-223 [14] = test: as above
How it was run: as §1

CAL-148 [15] = test: as above
How it was run: as §1

DU-4475 [16] = test: as above
How it was run: as §1

MDA-MB-453 [17] = test: as above
How it was run: as §1

BT-549 [18] = test: normalised response (% of control), CellTiter-Glo; higher = more viable cells (100 = DMSO, 0 = benzethonium chloride kill control)
How it was run: as §1

MCF-10A [19] = test: as above
How it was run: as §1

MDA-MB-231 [20] = test: as above
How it was run: as §1

SK-BR-3 = test: as above
How it was run: as §1

HCC1937 [21] = test: as above
How it was run: as §1

Hs578T [22] = test: as above
How it was run: as §1

CAL-51 [23] = test: as above
How it was run: as §1

HCC1599 [24] = test: as above
How it was run: as §1

BT-474 [25] = test: as above
How it was run: as §1

HDQ-P1 [26] = test: as above
How it was run: as §1

CAL-85-1 [27] = test: as above
How it was run: as §1

MDA-MB-436 [28] = test: as above
How it was run: as §1

MDA-MB-468 [29] = test: as above
How it was run: as §1

CAL-120 [30] = test: as above
How it was run: as §1

HCC1143 [31] = test: as above
How it was run: as §1

MFM-223 [32] = test: as above
How it was run: as §1

CAL-148 [33] = test: as above
How it was run: as §1

DU-4475 [34] = test: as above
How it was run: as §1

MDA-MB-453 [35] = test: as above
How it was run: as §1

HDQ-P1 [36] = test: normalised response (% of control), CellTox Green; higher = less cell death (100 = DMSO, 0 = benzethonium chloride kill control)
How it was run: as §1

SMILES	normalised response (BT-549 [1]) [%]	normalised response (MCF-10A [2]) [%]	normalised response (MDA-MB-231 [3]) [%]	normalised response (HCC1937 [4]) [%]	normalised response (Hs578T [5]) [%]	normalised response (CAL-51 [6]) [%]	normalised response (HCC1599 [7]) [%]	normalised response (BT-474 [8]) [%]	normalised response (CAL-85-1 [9]) [%]	normalised response (MDA-MB-436 [10]) [%]	normalised response (MDA-MB-468 [11]) [%]	normalised response (CAL-120 [12]) [%]	normalised response (HCC1143 [13]) [%]	normalised response (MFM-223 [14]) [%]	normalised response (CAL-148 [15]) [%]	normalised response (DU-4475 [16]) [%]	normalised response (MDA-MB-453 [17]) [%]	normalised response (BT-549 [18]) [%]	normalised response (MCF-10A [19]) [%]	normalised response (MDA-MB-231 [20]) [%]	normalised response (SK-BR-3) [%]	normalised response (HCC1937 [21]) [%]	normalised response (Hs578T [22]) [%]	normalised response (CAL-51 [23]) [%]	normalised response (HCC1599 [24]) [%]	normalised response (BT-474 [25]) [%]	normalised response (HDQ-P1 [26]) [%]	normalised response (CAL-85-1 [27]) [%]	normalised response (MDA-MB-436 [28]) [%]	normalised response (MDA-MB-468 [29]) [%]	normalised response (CAL-120 [30]) [%]	normalised response (HCC1143 [31]) [%]	normalised response (MFM-223 [32]) [%]	normalised response (CAL-148 [33]) [%]	normalised response (DU-4475 [34]) [%]	normalised response (MDA-MB-453 [35]) [%]	normalised response (HDQ-P1 [36]) [%]
CO[C@H]1C[C@@H]2CC[C@@H](C)[C@@](O)(O2)C(=O)C(=O)N2CCCC[C@H]2C(=O)O[C@H]([C@H](C)C[C@@H]2CC[C@@H](OP(C)(C)=O)[C@H](OC)C2)CC(=O)[C@H](C)/C=C(\C)[C@@H](O)[C@@H](OC)C(=O)[C@H](C)C[C@H](C)/C=C/C=C/C=C/1C [Ridaforolimus] (10 nM)	134	109	122	110	49.6	110	103	99.1	94.9	88.2	124	91.5	73	100	93.3	99.8	104	56	89.5	87.1	62.6	68.4	61.6	59.9	109	89.1	81.2	69.9	76	59.8	66.3	65	72.8	64.5	77	63.6	
COc1cc2/c(=N/c3ccc(Br)cc3F)nc[nH]c2cc1OCC1CCN(C)CC1 [Vandetanib] (100 nM)	102	103	85.4		92	70.7	87	98	98.6	84.2	67.6	83	85.6	98.8	88.6	92	90.5	89	57.3	89.2	77.7	90.6	94.1	83.3	102	84.7	83	99.3	91.2	83.5	94.4	86.2	82.5	96.5	90.1	88	
COc1cc(O)c2c(c1)/C=C/C[C@H](O)[C@H](O)C(=O)/C=C\C[C@H](C)OC2=O [(5Z)-7-Oxozeaenol] (1000 nM)	79.5	103	57.4	-12.2	64.6	115	103	99	35.6	112	140	102	129		15.5	74.4	103	40.3	56.9	72	115	76.1	91.1	106	92	71.5	71.5	42.8	81.3	56.5	94.2	96.9	90.4	79.5	8.27	118	66.1
COC(=O)c1ccc2c(c1)NC(=O)/C2=C(\Nc1ccc(N(C)C(=O)CN2CCN(C)CC2)cc1)c1ccccc1 [Nintedanib] (1000 nM)	111	105	102	80.7	94.1	105	98.1	97.9	107	107	162	101		89.4		98.5	103	83.5	59.3	92	86	89.4	93.4	83.2	98.9	101	69.1	97.2	99.4	96.8	85.2	98.8	59.2	94.6	87.6	96.2	96
CNC(=O)c1ccc(N2C(=S)N(c3ccc(C#N)c(C(F)(F)F)c3)C(=O)C2(C)C)cc1F [Enzalutamide] (1000 nM)	87	107	90.5		96.4	93.4	90.2	96	105	89.5	131	104	117		65.4	107	111	96.8	107	95.7	100	96.8	106	74.1	107	102	95.9	91.7	92.8	92.6	95.9	101	97.7	104	103	95.7	54.2
S=P(N1CC1)(N1CC1)N1CC1 [Thio-TEPA] (5000 nM)	109	109	109	109	85.2	29.6	93.5	100	95.8	94.6		100	62.1	98.8	102	99.2	101	91.7	100	96.2	105	96.4	108	68.9	112	94.4	99.5	97.2	97.4	100	96.5	96.1	105	93	102	109	96
CNC(=O)c1ccc(N2C(=S)N(c3ccc(C#N)c(C(F)(F)F)c3)C(=O)C23CCC3)cc1F [RD162] (1000 nM)	101	120	108	83.1	85.7	107	96	96.8	118	111	96.5	101			102	104	90.8	93.7	102	101	110	94.6	104	115	126	95.3	94.9	96.7	98.2	97.3	99	98	102	103	103	98.9	114
c1ccc2c(CCNc3ccc(Nc4ccncc4)cc3)c[nH]c2c1 [Serdemetan] (10 nM)																		105	100	97.3	94.3	99.4	96.5	105	115	87.6	98.7	106	97.9	95.2	91.5	93.4	98.3	92	102	105	
Nc1cc(C(F)(F)F)c(-c2cc(N3CCOCC3)nc(N3CCOCC3)n2)cn1 [Buparlisib] (1 nM)																		102	98.8	98.7	101	97.1	97.3	112	90.2	98.8	97.3	92.3	98.9	96.3	103	92.6	97.1	95	97.7	101	
CNC(=O)c1ccc(N2C(=S)N(c3ccc(C#N)c(C(F)(F)F)c3)C(=O)C2(C)C)cc1F [Enzalutamide] (1 nM)																		107	105	95	108	103	103	109	108	97.4	100	95.6	102	101	98.8	98.5	99.6	102	98.9	103	
